Consider 17 compounds from paper PMC10938303 (Bioorganic & medicinal chemistry letters, 2022).

One data set can be described thus: In vitro clearance, rat. The data set is classed as in vitro ADME.
The nature of data set [1]: In vitro clearance, human. The format is in vitro ADME.
The next data set concerns the target T1, hM5 (Homo sapiens, UniProt P08912).
T1 sequence (P08912 1-532): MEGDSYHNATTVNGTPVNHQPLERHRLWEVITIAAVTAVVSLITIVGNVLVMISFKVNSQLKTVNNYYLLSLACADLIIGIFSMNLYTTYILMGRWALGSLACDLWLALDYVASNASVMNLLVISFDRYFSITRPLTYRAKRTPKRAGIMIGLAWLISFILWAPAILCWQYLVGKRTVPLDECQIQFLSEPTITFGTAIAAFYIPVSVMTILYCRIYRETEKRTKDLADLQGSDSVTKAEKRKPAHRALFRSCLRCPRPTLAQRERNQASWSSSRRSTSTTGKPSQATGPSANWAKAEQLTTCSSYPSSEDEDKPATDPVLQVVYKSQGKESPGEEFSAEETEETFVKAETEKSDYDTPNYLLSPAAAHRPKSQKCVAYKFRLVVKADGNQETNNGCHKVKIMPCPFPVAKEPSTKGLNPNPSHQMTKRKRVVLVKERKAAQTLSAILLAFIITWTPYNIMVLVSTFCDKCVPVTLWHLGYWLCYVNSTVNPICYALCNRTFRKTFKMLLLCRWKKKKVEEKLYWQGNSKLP
The data set can be described thus: Calcium mobilization assay with hM5-CHO cells, EC80 acetylcholine. The format is cell-based. Particulars: for hM5 IC50: hM5-CHO cells, EC80 acetylcholine, one experiment in triplicate. In general terms: A change in cytosolic calcium serves as a functional read-out for many receptors and channels.

For `O=C(Nc1ccc2scnc2c1)C1CCN(S(=O)(=O)c2ccc3c(c2)CCO3)C1` (centres unmarked) [12a], the “Predicted CLhep (r)” value in the data set “In vitro clearance, rat” was 55 mL/min/kg. For the same compound, the “Predicted CLhep (h)” value in data set [1] is on record as 16 mL/min/kg. For the compound `O=C(Nc1ccc2scnc2c1)C1CN(S(=O)(=O)c2ccc3c(c2)CCO3)C1` [12b], the “Predicted CLhep (r)” value in “In vitro clearance, rat” is 57 mL/min/kg. Further, the “Predicted CLhep (h)” value in data set [1] was 16 mL/min/kg. Turning to `O=C(Nc1ccc2scnc2c1)[C@H]1CCN(S(=O)(=O)c2ccc3c(c2)CCO3)C1` [12c], the “Predicted CLhep (r)” value in the data set “In vitro clearance, rat” was 52 mL/min/kg. Further, the “Predicted CLhep (h)” value in data set [1] is listed as 16 mL/min/kg.

Consider `O=C(Nc1ccc2scnc2c1)[C@@H]1CCN(S(=O)(=O)c2ccc3c(c2)CCO3)C1` [12d], for which the “Predicted CLhep (r)” value in the data set “In vitro clearance, rat” was 59 mL/min/kg. Further, on hM5 (versus 12c), the “fold more potent than (S)-12a (12c) (hM5 IC50)” value came out at 21 fold. Further, the “Predicted CLhep (h)” value in data set [1] was 15 mL/min/kg. On to `C[C@@H]1CN(S(=O)(=O)c2ccc3c(c2)CCO3)C[C@@H]1C(=O)Nc1ccc2scnc2c1` [12e], for which the “Predicted CLhep (r)” value in “In vitro clearance, rat” was 64 mL/min/kg. Also, the “Predicted CLhep (h)” value in data set [1] is 19 mL/min/kg. The like results for `C[C@H]1CN(S(=O)(=O)c2ccc3c(c2)CCO3)C[C@@H]1C(=O)Nc1ccc2scnc2c1` [12f] were, in that order, 29 mL/min/kg and 4 mL/min/kg. `O=C(Nc1ccc2scnc2c1)[C@H]1CN(S(=O)(=O)c2ccc3c(c2)CCO3)C[C@@H]1C(F)(F)F` [12g]: the “hM5 IC50” value at hM5 is “inactive”. Turning to `O=C(Nc1ccc2scnc2c1)C12CC1CN(S(=O)(=O)c1ccc3c(c1)CCO3)C2` (centres unmarked) [12h], in the data set “In vitro clearance, rat”, the “Predicted CLhep (r)” value was 60 mL/min/kg. In addition, the “Predicted CLhep (h)” value in data set [1] is given as 18 mL/min/kg. Turning to `Cc1nn(C)cc1S(=O)(=O)N1CC[C@@H](C(=O)Nc2ccc3scnc3c2)C1` [17a], the “hM5 IC50” value on hM5 was “inactive”. Still for that read-out and setting: for `Cn1cc(S(=O)(=O)N2CC[C@@H](C(=O)Nc3ccc4scnc4c3)C2)c(C(F)(F)F)n1` [17b] the value was “inactive”. The same measure, in the same setting: for `O=C(Nc1ccc2scnc2c1)[C@@H]1CCN(S(=O)(=O)c2cccnc2)C1` [17c] the value was “inactive”; for `O=C(Nc1ccc2scnc2c1)[C@@H]1CCN(S(=O)(=O)c2ccc(Cl)nc2)C1` [17d], “inactive”. Consider `[2H]C1([2H])Oc2ccc(S(=O)(=O)N3CC[C@@H](C(=O)Nc4ccc5scnc5c4)C3)cc2C1([2H])[2H]` [17f], for which the “Predicted CLhep (r)” value in “In vitro clearance, rat” was 49 mL/min/kg. For the same compound, in data set [1], the “Predicted CLhep (h)” value is reported as 15 mL/min/kg. With `O=C(Nc1ccc2scnc2c1)[C@@H]1CCN(S(=O)(=O)c2ccc3c(c2)OCO3)C1` [17g], the “Predicted CLhep (r)” value in the data set “In vitro clearance, rat” is 55 mL/min/kg. Besides, in data set [1], the “Predicted CLhep (h)” value was 12 mL/min/kg. Take `O=C(Nc1ccc2scnc2c1)[C@@H]1CCN(S(=O)(=O)c2ccc3c(c2)CCC3)C1` [17h]: the “hM5 IC50” value at hM5 is reported as “significantly less active”.

As to `O=C(Nc1ccc2scnc2c1)[C@@H]1CCN(S(=O)(=O)c2ccc3ncccc3c2)C1` [17i], the “Predicted CLhep (r)” value in the data set “In vitro clearance, rat” is 51 mL/min/kg. The “Predicted CLhep (h)” value in data set [1] is recorded as 14 mL/min/kg. The like results for `O=C(Nc1ccc2scnc2c1)[C@@H]1CCN(S(=O)(=O)c2ccc3ncsc3c2)C1` [17j] were, in that order, 29 mL/min/kg and 13 mL/min/kg.
